Paper PMC11597089, “Kratom Alkaloids: A Blood–Brain Barrier Specific Membrane Permeability Assay-Guided Isolation and Cyclodextrin Complexation Study” (Molecules, 2024)

What was measured:
[1] = ACE complex stability, PYR-β-CD; format: physicochemical; settings: 6-monodeoxy-6-pyrrolidine-β-CD, positively charged, 30 mM phosphate buffer pH 7.4, 25 °C
Method: (§1) To investigate the CD complexation behavior of the four kratom alkaloids, we aimed to develop an ACE method for a systematic comparative study. […] To ensure sufficient buffer capacity and to avoid excessive current and Joule heat generation, the buffer concentration was set to 30 mM, and the applied voltage was 15 kV.
(§2) The ACE experiments were performed by using Agilent 7100 and HP^3DCE instruments (Agilent Technologies, Waldbronn, Germany). Untreated fused silica capillaries (total length of 48.5 cm, effective length of 40 cm, inner diameter of 50 μm) were purchased from Agilent Technologies. The new capillaries were conditioned with a 1 M NaOH wash for 1 h, followed by a 30 min wash each with 0.1 M NaOH and purified water. Prior to all runs, the capillary was preconditioned by rinsing with background electrolyte for 3 min. During the measurements, 30 mM phosphate buffer at pH 7.4 (30 mM Na2HPO4-NaOH) was used. The background electrolyte contained CDs at various concentrations. Stock solutions of the studied kratom alkaloids (mitragynine, paynantheine, speciogynine, speciociliatine) were prepared separately in methanol (1 mg/mL), and, right before the measurements, appropriate dilutions with purified water were used to prepare the sample solutions, applying 0.1% DMSO as the electroosmotic flow (EOF) marker. The samples were injected hydrodynamically at 40 mbar for 3 s. The positive polarity voltage was set to 15 kV, and the capillary was set to 25 °C. The electropherograms were recorded at four wavelengths (200 nm, 210 nm, 215 nm, and 220 nm), and the data were evaluated at 215 nm. In each case, three parallel measurements were performed. The measurements were evaluated using Origin and CEval software (v. 0.6i3).
(§3) In order to determine the complex stability constants that characterized the strength of the complexes, the first step was to determine the effective mobility of the analyte at specific CD concentrations. Triangular peaks caused by electromigration dispersion are often observed in ACE measurements.
(§4) Assuming a 1:1 complexation ratio and that the equilibrium CD concentration is almost equal to the total CD concentration, a relationship between the effective mobility relative to the EOF and the complex stability constant can be described by Function (4) (4) μeff=μA+μACDKstabCD/1+KstabCD where µeff is the effective mobility of the analyte, µA and µACD are the free and complexed analyte mobilities, [CD] is the concentration of the selector, and Kstab is the complex stability constant.
(§5) In order to calculate the exact, apparent, averaged complex stability constant values, viscosity correction and ionic strength correction were used.

[2] = ACE complex stability, MePYR-β-CD; format: physicochemical; settings: mono-6^A-(N-methyl-pyrrolidine)-β-CD, positively charged, 30 mM phosphate buffer pH 7.4, 25 °C
Method: as §1, §2, §3, §4, §5

[3] = ACE complex stability, HxDMS-α-CD; format: physicochemical; settings: hexakis-(2,3-O-dimethyl, 6-O-sulfo)-α-CD, 30 mM phosphate buffer pH 7.4, 25 °C
Method: as §1, §2, §3, §4, §5

[4] = ACE complex stability, CM-β-CD; format: physicochemical; settings: carboxymethylated-β-CD DS~3, 30 mM phosphate buffer pH 7.4, 25 °C
Method: as §1, §2, §3, §4, §5

[5] = ACE complex stability, Phos-β-CD; format: physicochemical; settings: phosphated-β-CD DS~2-6, 30 mM phosphate buffer pH 7.4, 25 °C
Method: as §1, §2, §3, §4, §5

[6] = ACE complex stability, γ-CD; format: physicochemical; settings: 30 mM phosphate buffer pH 7.4, 25 °C, 15 kV, 215 nm
Method: as §1, §2, §3, §4, §5

[7] = ACE complex stability, HPA-β-CD; format: physicochemical; settings: mono-6^A-(3-hydroxy)propylamino-β-CD, positively charged, 30 mM phosphate buffer pH 7.4, 25 °C
Method: as §1, §2, §3, §4, §5

[8] = ACE complex stability, RAME-β-CD; format: physicochemical; settings: randomly methylated-β-CD DS~12, 30 mM phosphate buffer pH 7.4, 25 °C
Method: as §1, §2, §3, §4, §5

[9] = ACE complex stability, S-β-CD; format: physicochemical; settings: sulfated-β-CD DS~13, 30 mM phosphate buffer pH 7.4, 25 °C
Method: as §1
(§6) The ACE experiments were performed by using Agilent 7100 and HP^3DCE instruments (Agilent Technologies, Waldbronn, Germany). Untreated fused silica capillaries (total length of 48.5 cm, effective length of 40 cm, inner diameter of 50 μm) were purchased from Agilent Technologies. The new capillaries were conditioned with a 1 M NaOH wash for 1 h, followed by a 30 min wash each with 0.1 M NaOH and purified water. Prior to all runs, the capillary was preconditioned by rinsing with background electrolyte for 3 min. During the measurements, 30 mM phosphate buffer at pH 7.4 (30 mM Na2HPO4-NaOH) was used. The background electrolyte contained CDs at various concentrations. […] The electropherograms were recorded at four wavelengths (200 nm, 210 nm, 215 nm, and 220 nm), and the data were evaluated at 215 nm. […] The measurements were evaluated using Origin and CEval software (v. 0.6i3). […]

[10] = ACE complex stability, HDMS-β-CD; format: physicochemical; settings: heptakis-(2,3-O-dimethyl, 6-O-sulfo)-β-CD, 30 mM phosphate buffer pH 7.4, 25 °C
Method: as §1, §2, §3, §4, §5

[11] = ACE complex stability, CM-α-CD; format: physicochemical; settings: carboxymethylated-α-CD DS~3.5, 30 mM phosphate buffer pH 7.4, 25 °C
Method: as §1, §2
as §3, with “measurements. […]” for “measurements.”

[12] = ACE complex stability, α-CD; format: physicochemical; settings: 30 mM phosphate buffer pH 7.4, 25 °C, 15 kV, 215 nm
Method: as §1, §2, §3, §4, §5

[13] = ACE complex stability, MA-β-CD; format: physicochemical; settings: mono-(6-N-amino-6-deoxy)-β-CD, positively charged, 30 mM phosphate buffer pH 7.4, 25 °C
Method: as §1, §2, §3, §4, §5

[14] = ACE complex stability, Sualfadex; format: physicochemical; settings: hexakis-(6-deoxy-6-(2-carboxyethyl)thio)-α-CD, 30 mM phosphate buffer pH 7.4, 25 °C
Method: as §1, §2, §3, §4, §5

[15] = ACE complex stability, CM-γ-CD; format: physicochemical; settings: carboxymethylated-γ-CD DS~4, 30 mM phosphate buffer pH 7.4, 25 °C
Method: as §1, §2, §3, §4, §5

[16] = ACE complex stability, ODMS-γ-CD; format: physicochemical; settings: octakis-(2,3-O-dimethyl, 6-O-sulfo)-γ-CD, 30 mM phosphate buffer pH 7.4, 25 °C
Method: as §1, §2, §3, §4, §5

[17] = ACE complex stability, β-CD; format: physicochemical; settings: 30 mM phosphate buffer pH 7.4, 25 °C, 15 kV, 215 nm
Method: as §1, §2, §3, §4, §5

[18] = ACE complex stability, CE-β-CD; format: physicochemical; settings: carboxyethylated-β-CD DS~3, 30 mM phosphate buffer pH 7.4, 25 °C
Method: as §1, §2, §3, §4, §5

[19] = ACE complex stability, Sugammadex; format: physicochemical; settings: octakis(6-deoxy-6-(2-carboxyethyl)thio)-γ-CD, 30 mM phosphate buffer pH 7.4, 25 °C
Method: as §1, §6

[20] = ACE complex stability, HP-β-CD; format: physicochemical; settings: hydroxypropylated-β-CD DS~4.5, 30 mM phosphate buffer pH 7.4, 25 °C
Method: as §1, §2
as §3, with “measurements. […]” for “measurements.”

[21] = ACE complex stability, SP-β-CD; format: physicochemical; settings: sulfopropylated-β-CD DS~2, 30 mM phosphate buffer pH 7.4, 25 °C
Method: as §1, §6

[22] = ACE complex stability, HP-γ-CD; format: physicochemical; settings: hydroxypropylated-γ-CD DS~3, 30 mM phosphate buffer pH 7.4, 25 °C
Method: as §1, §2
as §3, with “measurements. […]” for “measurements.”

[23] = ACE complex stability, DIME-β-CD; format: physicochemical; settings: dimethylated-β-CD DS~14, 30 mM phosphate buffer pH 7.4, 25 °C
Method: as §1, §2
as §3, with “measurements. […]” for “measurements.”

[24] = set-up: method as in PMID 25793541; settings: at pH 7; cited from earlier work
[25] = set-up: method as in PMID 25793541; settings: at neutral pH; cited from earlier work

Compound | complex stability constant (Kstab) with PYR-β-CD [1] | complex stability constant (Kstab) with MePYR-β-CD [2] | complex stability constant (Kstab) with HxDMS-α-CD [3] | complex stability constant (Kstab) with CM-β-CD [4] | complex stability constant (Kstab) with Phos-β-CD [5] | complex stability constant (Kstab) with γ-CD [6] | complex stability constant (Kstab) with HPA-β-CD [7] | complex stability constant (Kstab) with RAME-β-CD [8] | complex stability constant (Kstab) with HDMS-β-CD [10] | complex stability constant (Kstab) with CM-α-CD [11] | complex stability constant (Kstab) with α-CD [12] | complex stability constant (Kstab) with MA-β-CD [13] | complex stability constant (Kstab) with Sualfadex [14] | complex stability constant (Kstab) with CM-γ-CD [15] | complex stability constant (Kstab) with ODMS-γ-CD [16] | complex stability constant (Kstab) with β-CD [17] | complex stability constant (Kstab) with CE-β-CD [18] | also measured
CC[C@H]1CN2CCc3c([nH]c4cccc(OC)c34)[C@@H]2C[C@@H]1/C(=C\OC)C(=O)OC [Speciogynine, speciogynine] | < 10 M⁻¹ | < 10 M⁻¹ | 40 ± 4 M⁻¹ | 170 ± 15 M⁻¹ | 420 ± 30 M⁻¹ | 45 ± 4 M⁻¹ | < 10 M⁻¹ | 40 ± 1 M⁻¹ | 30 ± 3 M⁻¹ | 135 ± 12 M⁻¹ | 23 ± 5 M⁻¹ | < 10 M⁻¹ | 75 ± 20 M⁻¹ | 140 ± 12 M⁻¹ | 250 ± 15 M⁻¹ | 65 ± 9 M⁻¹ | 375 ± 25 M⁻¹ | complex stability constant (Kstab) with S-β-CD [9]: 970 ± 80 M⁻¹
mitragynine | < 10 M⁻¹ | < 10 M⁻¹ | 50 ± 10 M⁻¹ | 215 ± 20 M⁻¹ | 290 ± 30 M⁻¹ | 55 ± 5 M⁻¹ | < 10 M⁻¹ | 95 ± 9 M⁻¹ | 175 ± 7 M⁻¹ | 155 ± 15 M⁻¹ | 25 ± 2 M⁻¹ | < 10 M⁻¹ | 200 ± 25 M⁻¹ | 200 ± 10 M⁻¹ | 80 ± 7 M⁻¹ | 145 ± 20 M⁻¹ | 210 ± 20 M⁻¹ | complex stability constant (Kstab) with Sugammadex [19]: 2050 M⁻¹; complex stability constant (Kstab) with HP-β-CD [20]: 35 ± 2 M⁻¹; complex stability constant (Kstab) with SP-β-CD [21]: 210 ± 25 M⁻¹; complex stability constant (Kstab) with HP-γ-CD [22]: 230 ± 35 M⁻¹; complex stability constant (Kstab) with DIME-β-CD [23]: 150 ± 15 M⁻¹; logD [24]: 1.73; aqueous solubility [25]: 88 µg/mL
